Reference: patent publication US9540371B2, “Substituted quinazolin-4(3H)-ones, pyrido[3,4-d]pyrimidin-4(3H)-ones, pyrido[3,2-d]pyrimidin-4(3H)-ones and pyrido[2,3-d]pyrimidin-4(3H)-ones as positive allosteric modulators of muscarinic acetycholine receptor M1” (Vanderbilt University, priority 2013, dated 2017)
pEC50: −log10 of the molar value.

These compounds were tested against T1, mAChR M1 (UniProt P11229) (assay: mAChR M1 cell-based functional assay (calcium mobilization, PAM mode)). Conditions: calcium flux in CHO-K1 cells expressing mAChR M1; increase in the EC20 acetylcholine response; >10 μM estimated where no plateau but >20% increase in ACh response.
T1 sequence (P11229 1-460): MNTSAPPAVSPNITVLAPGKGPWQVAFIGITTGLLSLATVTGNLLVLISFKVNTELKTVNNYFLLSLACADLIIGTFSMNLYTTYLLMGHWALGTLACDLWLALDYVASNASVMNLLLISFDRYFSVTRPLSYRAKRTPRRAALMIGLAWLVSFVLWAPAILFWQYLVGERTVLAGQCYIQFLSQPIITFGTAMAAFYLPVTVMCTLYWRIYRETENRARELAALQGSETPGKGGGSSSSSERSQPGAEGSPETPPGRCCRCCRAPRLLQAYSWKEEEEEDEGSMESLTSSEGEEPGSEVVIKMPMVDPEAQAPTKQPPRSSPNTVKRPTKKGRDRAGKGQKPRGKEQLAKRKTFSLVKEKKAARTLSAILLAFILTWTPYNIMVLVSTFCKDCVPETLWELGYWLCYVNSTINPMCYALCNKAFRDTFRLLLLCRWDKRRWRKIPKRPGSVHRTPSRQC
Source text: Chinese hamster ovary (CHO-K1) cells stably expressing rat (r)M1 were purchased from the American Type Culture Collection and cultured according to their indicated protocol. CHO cells stably expressing human (h)M2, hM3, and hM5 were described previously (Levey, A. I., et al., J Neurosci. 1991, 11, 3218-3226.); hM1 and hM4 cDNAs were purchased from Missouri S&T cDNA Resource; rM4 cDNA was provided by T. I. Bonner (National Institutes of Health, Bethesda, Md.). rM2 and rM3 were cloned from a rat brain cDNA library and sequence verified. hM1, rM2, rM3, hM4, and rM4 cDNAs were used to stably transfect CHO-K1 cells purchased from the American Type Culture Collection using Lipofectamine® 2000 (Thermo Fisher Scientific Inc.). To make stable rM2, hM2, hM4, and rM4 cell lines for use in calcium mobilization assays, these cells also were stably transfected with a chimeric G-protein (Gqi5) (provided by B. R. Conklin, University of California, San Francisco) using Lipofectamine® 2000. rM1, hM1, rM3, hM3, rM5, and hM5 cells were grown in Ham's F-12 medium containing 10% heat-inactivated fetal bovine serum (FBS), 20 mM HEPES, and 50 μg/mL G418 sulfate. rM2-Gqi5, hM2-Gqi5, and hM4-Gqi5 cells were grown in the same medium also containing 500 μg/mL hygromycin B. Stable rM4-Gqi5 cells were grown in DMEM containing 10% heat-inactivated FBS, 20 mM HEPES, 400 μg/mL G418 sulfate, and 500 μg/mL hygromycin B.
For high throughput measurement of agonist-evoked increases in intracellular calcium, CHO-K1 cells stably expressing muscarinic receptors were plated in growth medium lacking G418 and hygromycin B at 15,000 cells/20 μL/well in Greiner 384-well black-walled, tissue culture (TC)-treated, clear-bottom plates (VWR). Cells were incubated overnight at 37° C. and 5% CO2. The next day, cells were washed using an ELX 405 (BioTek) with four washes (80 μL) of assay buffer then aspirated to 20 μL. Next, 20 μL of 16 μM Fluo-4/acetoxymethyl ester (Invitrogen, Carlsbad, Calif.) prepared as a 2.3 mM stock in DMSO and mixed in a 1:1 ratio with 10% (w/v) Pluronic F-127 and diluted in assay buffer was added to the wells and the cell plates were incubated for 50 min at 37° C. and 5% CO2. Dye was removed by washing with the ELX 405 (four 80 μL washes of assay buffer) then aspirated to 20 μL. Compound master plates were formatted in an 11 point CRC format (1:3 dilutions) in 100% DMSO with a starting concentration of 10 mM using the BRAVO liquid handler (Agilent). Test compound CRCs were then transferred to daughter plates (240 nL) using the Echo acoustic plate reformatter (Labcyte, Sunnyvale, Calif.) and then diluted into assay buffer (40 μL) to a 2× stock using a Thermo Fisher Combi (Thermo Fisher Scientific, Waltham, Mass.).
Calcium flux was measured using the Functional Drug Screening System (FDSS) 6000 (Hamamatsu Corporation, Tokyo, Japan) as an increase in the fluorescent static ratio. Compounds were applied to cells (20 μL, 2X) using the automated system of the FDSS 6000 at 4 s into the 300 s protocol and the data were collected at 1 Hz. At 144 s into the 300 s protocol, 10 μL of an EC20 concentration of the muscarinic receptor agonist acetylcholine was added (5X), followed by the addition of […] concentration of acetylcholine at the 230 s time point (5X). Agonist activity was analyzed as a concentration—dependent increase in calcium mobilization upon compound addition. Positive allosteric modulator activity was analyzed as a concentration-dependent increase in the EC20 acetylcholine response. Antagonist activity was analyzed as a concentration-dependent decrease in the EC80 acetylcholine response. Concentration-response curves were generated using a four -parameter logistical equation in XLFit curve fitting software (IDBS, Bridgewater, N.J.) for Excel (Microsoft, Redmond, Wash.) or Prism (GraphPad Software, Inc., San Diego, Calif.).
The calcium mobilization assay was also used to determine “efficacy”. […]

| SMILES | pEC50 |
| --- | --- |
| O=c1c2ncccc2ncn1Cc1ccc(-n2cccn2)cc1 [Compound B10] | < 5.00 |
| Cn1cc(-c2ccc(Cn3cnc4ncccc4c3=O)cc2)cn1 [Compound B6] | < 5.00 |
| Cn1cc(-c2ccc(Cn3cnc4ccccc4c3=O)cc2)cn1 [Compound B3] | < 5.00 |
| O=c1c2ccccc2ncn1Cc1ccc(-n2cccn2)cc1 [Compound B2] | < 5.00 |
| O=c1c2cccnc2ncn1Cc1ccc(-n2cccn2)cc1 [Compound B5] | < 5.00 |
| Cn1cc(-c2ccc(Cn3cnc4cccnc4c3=O)cc2)cn1 [Compound B11] | < 5.00 |

Continued, values first:

| pEC50 | SMILES |
| --- | --- |
| 5.31 | Cn1cc(-c2ccc(Cn3cnc4cnccc4c3=O)cc2)cn1 [Compound B9] |
| 6.22 | Cn1cc2c(-c3cc(F)c(Cn4cnc5cnccc5c4=O)c(F)c3)cccc2n1 [Compound B7, 3-(2,6-Difluoro-4-(2-Methyl-2H-Indazol-4-yl)Benzyl)Pyrido[3,4-D]Pyrimidin-4(3H)-one] |
| 5.44 | Cn1cc2c(-c3cc(F)c(Cn4cnc5cccnc5c4=O)c(F)c3)cccc2n1 [Compound B12] |
| < 5.00 | O=c1c2ccncc2ncn1Cc1ccc(-n2cccn2)cc1 [Compound B8] |
